The numbers were not newly measured in patent publication US20240173256A1, “HDL MIMICKING TARGETED DRUG DELIVERY SYSTEM FOR THE TREATMENT OF SOLID TUMORS” (University of North Texas Health Science Center, priority 2022, published 2024), which cites them from elsewhere.

The conditions of series [1]: rodents.
The conditions of series [2]: patients.

SMILES strings stand for the structures. Like-named read-outs stand apart in the source and are kept apart here.

In the case of `CCCCC(=O)OCC(=O)[C@]1(O)Cc2c(O)c3c(c(O)c2[C@@H](O[C@H]2C[C@H](NCc4ccccc4)[C@H](O)[C@H](C)O2)C1)C(=O)c1c(OC)cccc1C3=O` [AD 198, N-Benzyladriamycin-14-valerate], the Cardiotoxicity result in series [1] is given as “no significant cardiotoxicity”.
For `COc1cccc2c1C(=O)c1c(O)c3c(c(O)c1C2=O)C[C@@](O)(C(=O)CO)C[C@@H]3O[C@H]1C[C@H](N)[C@H](O)[C@H](C)O1` [doxorubicin], the Cardiotoxicity entry in series [1] is recorded as “ventricular damage proportionate to dosage”. The results for the “Incidence of congestive heart failure” value in series [2] (400 mg/m^2), in series [2] (550 mg/m^2) and in series [2] (700 mg/m^2) were 4.7%, 26% and 48%, respectively.
